The source of these data is paper PMC6271834, “Antiprotozoal Activity of (E)-Cinnamic N-Acylhydrazone Derivatives” (Molecules, 2014).

Where two headings read alike, the source gives them in different places.

The subject of assay [1] is Leishmania donovani (MHOM/ET/67/L82) axenic amastigotes. As to the kind of experiment: Leishmanicidal activity, axenic amastigotes, Alamar Blue. Type of assay: cell-based. Conditions: for SI (Selectivity Index for leishmanicidal activity): L-6 cells versus L. donovani; for IC50: Leishmania donovani, axenic amastigotes, strain MHOM/ET/67/L82, 72 h, means of two determinations, read-out: L. donovani IC50. Here is the method:
Amastigotes of Leishmania donovani strain MHOM/ET/67/L82 were grown in axenic culture at 37 °C in SM medium at pH 5.4 supplemented with 10% heat-inactivated fetal bovine serum under an atmosphere of 5% CO2 in air. One hundred microliters of culture medium with 10^5 amastigotes from axenic culture with or without the compound to test were seeded in 96-well microtiter plates. […] Each drug was tested in duplicate and each assay was repeated at least once. After 72 h of incubation the plates were inspected under an inverted microscope to assure growth of the controls and sterile conditions. Ten microliters of Alamar Blue (12.5 mg resazurin dissolved in 100 mL phosphate buffered saline) were then added to each well and the plates incubated for another 2 h. Then the plates were read in a Spectramax Gemini XS microplate fluorometer (Molecular Devices Cooperation, Sunnyvale, CA, USA) using an excitation wave length of 536 nm and an emission wave length of 588 nm. Data were analyzed using the software Softmax Pro (Molecular Devices Cooperation, Sunnyvale, CA, USA). Decrease of fluorescence (=inhibition) was expressed as percentage of the fluorescence of control cultures. For the serial drug dilution assay inhibition values were plotted against the drug concentrations and IC50 values were calculated from the sigmoidal inhibition curves.
For orientation: The colour change of resazurin is a common sign of viable cells or microbes.

The subject of assay [2] is Trypanosoma brucei rhodesiense (STIB900). As to the kind of experiment: Trypanocidal activity, bloodstream forms, Alamar Blue. The assay is classed as cell-based. The following applies: read-out: T.b. rhod. IC50. Here is the method: Minimum essential medium (50 μL) supplemented according to a known procedure with 2-mercaptoethanol and 15% heat-inactivated horse serum was added to each well of a 96-well microtiter plate. Serial drug dilutions were prepared covering a range from 90 to 0.123 μg/mL. Then 10^4 bloodstream forms of T. b. rhodesiense STIB 900 in 50 μL were added to each well and the plate incubated at 37 °C under a 5% CO2 atmosphere for 72 h. Ten microliters of Alamar Blue (containing 12.5 mg resazurin dissolved in […] distilled water) were then added to each well and incubation continued for a further 2–4 h. The Alamar Blue dye is an indicator of cellular growth and/or viability. The blue, non-fluorescent, oxidized form becomes pink and fluorescent upon reduction by living cells. The plate was then read in a Spectramax Gemini XS microplate fluorometer (Molecular Devices Cooperation, Sunnyvale, CA, USA) using an excitation wavelength of 536 nm and emission wavelength of 588 nm. Fluorescence development was measured and expressed as percentage of the control. Data were transferred into the graphic programme Softmax Pro (Molecular Devices,) which calculated IC50 values. Melarsoprol was used as standard.

For a further assay, the system named is L-6 rat myoblast cells. Kind of assay: Cytotoxicity to L-6 cells, Alamar Blue. The assay is classed as cell-based. Conditions: for IC50: read-out: Cytot. L-6 Cells IC50. On the procedure: Exactly 100 μL RPMI 1640 medium supplemented with 1% L-glutamine (200 mM) and 10% fetal bovine serum containing 4 × 10^4 L-6 cells (rat skeletal myoblasts) were added to each well of a 96-well microtiter plate. After 24 h, the medium was removed from all wells and replaced by 100 μL of fresh medium containing a 3-fold serial drug dilution covering a range from 200 μg/mL to 0.274 μg/mL, except for the control wells. After 72 h of incubation 10 μL of Alamar Blue (12.5 mg resazurin dissolved in 100 mL phosphate buffered saline) were added to each well and the plates were incubated for another 2 h. Then the plates were read with a Spectramax Gemini XS microplate fluorometer as described for the leishmanicidal assay. Podophyllotoxin was used as standard drug.

Assay [3] concerns Trypanosoma brucei rhodesiense (STIB900). As to the kind of experiment: Trypanocidal activity, bloodstream forms, Alamar Blue. Type of assay: cell-based. The following applies: L-6 cells versus T. b. rhodesiense.
In another assay the test system is cruzipain. Also on record: method as in doi:10.1590/S0103-50532010000100021. The following applies: cited from earlier work.
For assay [4], the system named is L. major cathepsin L-like cysteine protease. Also on record: method as in PMID 9371086. The following applies: cited from earlier work.
The mark [5] stands for this setting: bloodstream forms, STIB900, 72 h, means of two determinations.
Setting [6] is: L6, L-6 rat skeletal myoblasts, 72 h, means of two determinations.
The mark [7] stands for this setting: L-6 rat skeletal myoblasts, 72 h, means of two determinations.

One may read the IC50 as the concentration at which inhibition is half-maximal.

For `COc1cc(/C=N/NC(=O)/C=C/c2ccccc2)ccc1O` [Compound 4], the “SI (Selectivity Index for leishmanicidal activity)” value in assay [1] is 4.4. In addition, the 50% inhibitory concentration (IC50) in assay [1] was 21.7 µM; in assay [2] (setting [5]) it was 40.8 µM; in the assay on L-6 rat myoblast cells (setting [6]), 95.4 µM. Also, the “SI (Selectivity Index for trypanocyde activity)” value in assay [3] is on record as 2.3.
`O=C(/C=C/c1ccccc1)NN=Cc1ccc(O)c(O)c1` [Compound 5, (E)-N'-(3,4-dihydroxybenzylidene)cinnamohydrazide]: in assay [1], the “SI (Selectivity Index for leishmanicidal activity)” value stood at 1.2. The IC50 in assay [1] is 11.7 µM; in assay [2] (setting [5]) it was 1.93 µM; in the assay on L-6 rat myoblast cells (setting [6]) it was 14 µM. In addition, the “Cytot. L-6 Cells IC50” value in the assay on L-6 rat myoblast cells (setting [7]) is on record as “cytotoxic”. For the same compound, in assay [3], the “SI (Selectivity Index for trypanocyde activity)” value was 7.3.
`O=C(/C=C/c1ccccc1)N/N=C/c1ccc2c(c1)OCO2` [Compound 6]: the “SI (Selectivity Index for leishmanicidal activity)” value in assay [1] amounted to 0.3. Moreover, the values for the IC50 (in assay [1]; in assay [2] (setting [5]); in the assay with L-6 rat myoblast cells (setting [6])) were 12.5 µM, 89.5 µM and 4.3 µM, respectively. Moreover, the “SI (Selectivity Index for trypanocyde activity)” value in assay [3] is reported as 0.05.
As to `COc1cc(/C=N/NC(=O)/C=C/c2ccccc2)cc(OC)c1OC` [Compound 7], the “SI (Selectivity Index for leishmanicidal activity)” value in assay [1] was 34.3. The IC50 in assay [1] came out at 3.5 µM; in assay [2] (setting [5]), 49.3 µM; in the assay with L-6 rat myoblast cells (setting [6]), 120 µM. Besides, the “SI (Selectivity Index for trypanocyde activity)” value in assay [3] was 2.4.
Consider `O=C(/C=C/c1ccccc1)N/N=C/c1ccc(F)cc1` [Compound 8], for which, in assay [1], the “SI (Selectivity Index for leishmanicidal activity)” value is listed as over 13.8. Besides, the half-maximal inhibitory concentration (IC50) is 24.3 µM in assay [1], 284 µM in assay [2] (setting [5]) and over 335 µM in the assay on L-6 rat myoblast cells (setting [6]). Also, the “SI (Selectivity Index for trypanocyde activity)” value in assay [3] is reported as over 1.2.
In the case of `O=C(/C=C/c1ccccc1)N/N=C/c1ccc([N+](=O)[O-])cc1` [Compound 9], in assay [1], the “SI (Selectivity Index for leishmanicidal activity)” value amounted to 24.1. In addition, the IC50 in assay [1] was 10.6 µM; in assay [2] (setting [5]), over 300 µM; in the assay on L-6 rat myoblast cells (setting [6]), 255 µM.
As for `COc1ccc(/C=N/NC(=O)/C=C/c2ccccc2)cc1` [Compound 10], the IC50 in assay [1] is 13.8 µM; in assay [2] (setting [5]), 111 µM; in the assay on L-6 rat myoblast cells (setting [6]), over 321 µM.
Regarding `O=C(/C=C/c1ccccc1)N/N=C/c1ccc(Cl)cc1` [Compound 11, (2E)-N'-[(E)-4-Chlorobenzylidene]-3-phenylprop-2-enohydrazide], the “SI (Selectivity Index for leishmanicidal activity)” value in assay [1] is reported as 6.0. Also, the values for the IC50 (in assay [1]; in assay [2] (setting [5]); with L-6 rat myoblast cells (setting [6])) were 10.8 µM, 121 µM and 65.5 µM, respectively. Further, the “SI (Selectivity Index for trypanocyde activity)” value in assay [3] turned out to be 0.5.
With `O=C(/C=C/c1ccccc1)N/N=C/c1ccccc1` [Compound 12, (2E)-N'-[(E)-Benzylidene]-3-phenylprop-2-enohydrazide], in assay [1], the “SI (Selectivity Index for leishmanicidal activity)” value came to 3.6. Moreover, the IC50 in assay [1] was 43.1 µM; in assay [2] (setting [5]), over 300 µM; with L-6 rat myoblast cells (setting [6]), 157 µM.
Take `O=C(/C=C/c1ccccc1)N/N=C/c1ccc(O)cc1` [Compound 13]: in assay [1], the “SI (Selectivity Index for leishmanicidal activity)” value is 1.1. In addition, the half-maximal inhibitory concentration (IC50) in assay [1] was found to be 36.7 µM; in assay [2] (setting [5]), 82.5 µM; in the assay with L-6 rat myoblast cells (setting [6]), 40.4 µM. The “SI (Selectivity Index for trypanocyde activity)” value in assay [3] stood at 0.5.
As for `COc1ccc(/C=N/NC(=O)/C=C/c2ccccc2)cc1OC` [Compound 14], the “SI (Selectivity Index for leishmanicidal activity)” value in assay [1] is on record as over 9.3. The IC50 was 31.2 µM in assay [1], 67.6 µM in assay [2] (setting [5]) and over 290 µM in the assay on L-6 rat myoblast cells (setting [6]). For the same compound, the “SI (Selectivity Index for trypanocyde activity)” value in assay [3] is reported as over 4.3.
For `O=C(/C=C/c1ccccc1)N/N=C/c1ccccc1O` [Compound 15, (2E)-N'-[(E)-2-Hydroxybenzylidene]-3-phenylprop-2-enohydrazide], in assay [1], the “SI (Selectivity Index for leishmanicidal activity)” value was determined as 4.1. Moreover, the values for the half-inhibitory concentration (IC50) (in assay [1]; in assay [2] (setting [5]); in the assay on L-6 rat myoblast cells (setting [6])) were 3.61 µM, 6.72 µM and 14.9 µM, respectively. Further, the “Cytot. L-6 Cells IC50” value in the assay on L-6 rat myoblast cells (setting [7]) is “cytotoxic”. In addition, in assay [3], the “SI (Selectivity Index for trypanocyde activity)” value was 2.2.
`COc1ccc(/C=N/NC(=O)/C=C/c2ccccc2)cc1O` [Compound 16]: the “SI (Selectivity Index for leishmanicidal activity)” value in assay [1] is given as 1.4. Also, the IC50 in assay [1] is 33.3 µM; in assay [2] (setting [5]), 80.1 µM; in the assay on L-6 rat myoblast cells (setting [6]), 48.1 µM. The “SI (Selectivity Index for trypanocyde activity)” value in assay [3] worked out at 0.6.
Take `Nc1nc(N)nc(Nc2ccc([As]3SCC(CO)S3)cc2)n1` (centres unmarked) [MLSP, Melarsoprol, reference compound]: the half-maximal inhibitory concentration (IC50) in assay [2] (72 h) was determined as 0.003 µM.
Take `CCCCCCCCCCCCCCCCOP(=O)([O-])OCC[N+](C)(C)C` [MTS, Miltefosine, reference compound]: the IC50 in assay [1] was 0.348 µM.
In the case of `COc1cc([C@@H]2c3cc4c(cc3[C@H](O)[C@H]3COC(=O)[C@H]23)OCO4)cc(OC)c1OC` [PPT, Podophyllotoxin, reference compound], the half-inhibitory concentration (IC50) in the assay with L-6 rat myoblast cells (Rattus norvegicus, L6, 72 h) is 0.006 µM.
Consider “(E)-1-(benzo[d][1,3]dioxol-5-yl)-3-(4-bromophenyl)prop-2-en-1-one [Compound 1]”, for which the half-maximal inhibitory concentration (IC50) in the assay on cruzipain is 20 µM.
Consider “(E)-3-hydroxy-N'-((2-hydroxynaphthalen-1-yl)methylene)-7-methoxy-2-naphthohydrazide [Compound 2]”, for which the IC50 in assay [4] is 0.5 µM.
